The results in this text go back to ChEMBL document CHEMBL1155219, “Rapid generation of a high quality lead for transforming growth factor-beta (TGF-beta) type I receptor (ALK5)” (J Med Chem, 2009).

The structures appear in SMILES notation. Where only a bound is given, the exact number is not on record here.

The target in series [1] is T1, TGF-beta receptor type-1 (Homo sapiens, UniProt P36897).
T1 sequence (P36897 whole entry): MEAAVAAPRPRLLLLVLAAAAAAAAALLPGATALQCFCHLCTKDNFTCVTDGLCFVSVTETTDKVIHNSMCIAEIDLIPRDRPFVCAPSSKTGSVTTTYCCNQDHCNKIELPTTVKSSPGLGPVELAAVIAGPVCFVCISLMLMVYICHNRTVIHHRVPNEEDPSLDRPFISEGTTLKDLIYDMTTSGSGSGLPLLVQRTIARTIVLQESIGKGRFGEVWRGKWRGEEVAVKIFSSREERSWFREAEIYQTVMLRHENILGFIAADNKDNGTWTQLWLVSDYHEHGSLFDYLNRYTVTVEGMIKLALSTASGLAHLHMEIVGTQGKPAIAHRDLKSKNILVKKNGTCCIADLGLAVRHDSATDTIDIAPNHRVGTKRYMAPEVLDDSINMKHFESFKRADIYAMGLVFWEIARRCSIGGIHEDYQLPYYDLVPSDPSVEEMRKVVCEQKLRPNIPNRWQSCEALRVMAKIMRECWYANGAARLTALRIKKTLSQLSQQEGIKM
Put plainly: Inhibition of 6His-tagged human ALK5 expressed in baculovirus-infected SF21 cells after 30 mins by fluorescence polarization assay. (In general: Polarisation of emitted light reports the rotation of a fluorescent probe.)

For series [2], the target named is T1, TGF-beta receptor type-1. In kind it is cell-based, MDA-MB-468.
Description: Inhibition of ALK5 in human MDA-MB-468 cells assessed as inhibition of nuclear translocation of GFP-2/Smad2 fusion reporter gene after 90 mins by Hoechst 3342 staining-based cellomics arrayscan imaging analysis
Series [3] can be described thus: Octanol-phosphate buffered saline partition coefficient, log D at pH 7.4.
Series [4] can be described thus: in vivo. Particulars: Han Wistar, rat, po, 5 umol/kg.
Description: Oral bioavailability in Han Wistar rat at 5 umol/kg
A short description of series [5]: in vivo. Particulars: Han Wistar, rat, plasma, po, 5 umol/kg.
Description: AUC in Han Wistar rat at 5 umol/kg, po
The nature of series [6]: Clearance in Han Wistar rat at 5 umol/kg, po. The note with it: in vivo, iv.
The mark [7] stands for this setting: octanol/phosphate buffered saline.

In the case of `COc1cc(Nc2cc(Oc3ccc(C)nc3)ccn2)cc(OC)c1OC`, the figures for the IC50 at TGF-beta receptor type-1 [1] and against TGF-beta receptor type-1 [2] were 108 nM and 282 nM, respectively. The logD (commonly the decadic logarithm of the distribution of all forms, ionised or not, between an organic phase and buffer at a given pH) in series [3] (octanol/water) was found to be 3.2.

For the compound `COc1ccccc1Nc1cc(Oc2cc(C)c(C)nc2-c2ccccn2)ccn1`, the results for the IC50 at TGF-beta receptor type-1 [1] and against TGF-beta receptor type-1 [2] were 7 nM and 114 nM, respectively. In series [3] (octanol/water), this compound displayed a logD of 3.4.

In series [3] (setting [7]), `Cc1cc(Oc2ccnc(Nc3ccc(N4CCOCC4)cc3)c2)c(-c2ccccn2)nc1C` gave a log distribution coefficient (logD) of 2.6.

`Cc1cc(Oc2ccnc(Nc3ccc(S(N)(=O)=O)cc3)c2)c(-c2ccccn2)nc1C`: the IC50 (as a rule, the midpoint of a concentration-inhibition curve) against TGF-beta receptor type-1 [1] came out at 21 nM; against TGF-beta receptor type-1 [2], 27 nM. Besides, in “in vivo [4]”, the bioavailability – broadly, the share of a dose that reaches the circulation, judged against a reference dose that is usually intravenous – is 20%. Moreover, the AUC (as a rule, the area under the concentration-time curve, a measure of exposure) in “in vivo [5]” came out at 0.47 µM·h. In series [3] (setting [7]), this compound had a log distribution coefficient (logD) of 2.3.

With `Cc1cc(Oc2ccnc(Nc3ccc(C(=O)N(C)C)cc3)c2)c(-c2ccccn2)nc1C`, the IC50 at TGF-beta receptor type-1 [1] came out at 12 nM; against TGF-beta receptor type-1 [2], 31 nM. Moreover, the pH-dependent lipophilicity (logD) in series [3] (setting [7]) is 3.4.

Turning to `COc1cc(Nc2cc(Oc3cc(C)c(C)nc3-c3ccccn3)ccn2)cc(OC)c1OC`, the bioavailability in “in vivo [4]” stood at 4%.

`COc1cc(Nc2cc(Oc3cccnc3C)ccn2)cc(OC)c1OC`: the IC50 on TGF-beta receptor type-1 [1] was found to be 107 nM; against TGF-beta receptor type-1 [2], 628 nM.

For `Cc1cc(Oc2ccnc(Nc3ccccc3N3CCOCC3)c2)c(-c2ccccn2)nc1C`, the logD in series [3] (setting [7]) came out at 3.1.

Regarding `Cc1ccc(Oc2ccnc(Nc3ccc(S(N)(=O)=O)cc3)c2)c(C)n1`, in series [6], the clearance came to 12 mL/min/kg. In addition, in “in vivo [4]”, the bioavailability is 75%. Besides, in the series “in vivo [5]”, the exposure (AUC) was 4.95 µM·h. The compound further had a logD in series [3] (octanol/water) of 2.5.

As to `Cc1cc(Oc2ccnc(Nc3cccc(N4CCOCC4)c3)c2)c(-c2ccccn2)nc1C`, the log distribution coefficient (logD) in series [3] (setting [7]) is 3.3.

Take `COc1cc(Nc2cc(Oc3ccc(C)nc3-c3ccccn3)ccn2)cc(OC)c1OC`: the figures for the IC50 against TGF-beta receptor type-1 [1] and against TGF-beta receptor type-1 [2] were 13 nM and 20 nM, respectively. The log distribution coefficient (logD) in series [3] (setting [7]) worked out at 3.4.

With `COc1cc(Nc2cc(Oc3ccc(C)nc3C)ccn2)cc(OC)c1OC`, the IC50 against TGF-beta receptor type-1 [2] was determined as 21 nM. Besides, in “in vivo [4]”, the bioavailability came out at 21%. Also, in the series “in vivo [5]”, the exposure (AUC) was 0.34 µM·h. Further, the pH-dependent lipophilicity (logD) in series [3] (setting [7]) turned out to be 3.

For `Cc1cc(Oc2ccnc(Nc3ccc(F)cc3)c2)c(-c2ccccn2)nc1C`, the 50% inhibitory concentration (IC50) against TGF-beta receptor type-1 [1] turned out to be 129 nM; at TGF-beta receptor type-1 [2], 63 nM. The compound also had a pH-dependent lipophilicity (logD) in series [3] (setting [7]) of 3.2.

For `COc1cc(Nc2cc(Oc3cccnc3)ccn2)cc(OC)c1OC`, the IC50 against TGF-beta receptor type-1 [1] was 227 nM; against TGF-beta receptor type-1 [2] it was greater than 5800 nM. For the same compound, the logD in series [3] (setting [7]) was 2.7.
